US10463651B2, “3-(1H-pyrrolo[3,2-C]pyridin-2-YL)-1H-indazoles and therapeutic uses thereof” (Samumed, LLC, priority 2015, dated 2019)

Tests used:
Assay type in all cases: cell-based
SW480 colon cancer cells = assay: Cell viability assay (CellTiter-Blue); settings: Homo sapiens; for EC50: 96 h, SW480 cell viability, four days, CellTiter-Blue
In short: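 Fluorescence from resazurin reduced to resorufin by metabolically active cells was the read-out, taken after ~3 h with CellTiter-Blue.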

[1] = tested on: primary human mesenchymal stem cells (hMSCs); assay: Induction of chondrogenesis in hMSCs (Rhodamine B / Nile Red nodule imaging); settings: for EC50: concentration required to induce 50% levels of chondrogenesis vs TGF-β3 positive control, read-out: Conc (nM) of 50% TGF-β3 activity; for Emax: maximum activity relative to TGF-β3 (10 ng/mL) positive control, read-out: Max. Activity as % TGF-β3 activity
Text: Representative compounds were screened using primary human mesenchymal stem cells (hMSCs) to determine their ability to induce chondrogenesis (process by which cartilage is developed).
Primary human mesenchymal stem cells (hMSCs) were purchased from Lonza (Walkersville, Md.) and expanded in Mesenchymal Stem Cell Growth Media (Lonza). Cells between passage 3 and 6 were used for the experiments.
Area of nodules in each well was normalized to the average of 3 DMSO treated wells on the same plate using Excel (Microsoft Inc.). The normalized averages (fold change over DMSO) of 2 or 3 replicate wells for each compound concentration were calculated. Due to solubility limitations of some of the compounds, curve fitting was incomplete leading to inaccurate EC50 determinations.
Using TGF-β3 as a positive control, the concentration of representative compounds required to induce 50% levels of chondrogenesis is reported. In addition, the maximum activity of each compound and the respective dose that each compound reached maximum chondrogenesis activity is reported.

IL-6 (THP-1 cells) = assay: IL-6 inhibition in LPS-stimulated THP-1 cells (HTRF); settings: Homo sapiens; for EC50: IL6 by HTRF, THP-1 cells, 500 ng/mL LPS, 22 hours
In short: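 THP-1 cells, pre-cultured 24 h in 1% FBS medium, treated with compound 2 h at 37 °C, then stimulated with 500 ng/mL LPS for 22 h. Secreted IL-6 measured by HTRF as the 665/620 nm ratio. Values normalized to DMSO; EC50 from four-parameter fit, duplicates.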

[2] = tested on: Wnt activity (Sp5-Luc reporter, SW480 colon carcinoma cells); assay: Screening assay for Wnt activity (Sp5-Luc reporter gene assay in SW480 cells); settings: Homo sapiens; for EC50: Sp5-Luc reporter, SW480 cells, incubated overnight
In short: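 SW480 colon carcinoma cells stably carrying Sp5 promoter (eight TCF/LEF sites)-driven firefly luciferase, plated at 4,000 cells/well in 1% FBS medium and incubated overnight at 37° C. Luminescence normalised to DMSO-only cells; EC50 from four-parameter variable-slope nonlinear regression.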

[3] = tested on: primary human fibroblasts derived from IPF patients (LL29 cells) treated with TGF-β1; assay: Inhibition of the fibrotic process (αSMA staining) in TGF-β1-treated fibroblasts; settings: Fibroblast, 96 h; for EC50: % αSMA-positive LL29 cells, TGF-β1 20 ng/mL, 4 days
In short: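 LL29 fibroblasts from IPF patients, 1,500 cells/well in F12 with 1% FBS, stimulated with TGF-β1; TGF-β1 plus DMSO wells as controls. Incubation 4 days, then SYTOX green 1 μM final for 30 min at room temperature. Fibrotic response read as αSMA staining.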

SMILES | EC50 (SW480 colon cancer cells) [nM] | EC50 [1] [nM] | EC50 (IL-6 (THP-1 cells)) [nM] | EC50 [2] [nM] | Emax [1] [%] | EC50 [3] [nM] | inhibition at 10 µM (SW480 colon cancer cells; SW480, 96 h, read-out: percent inhibition at 10 μM) [%] | inhibition at 10 µM (IL-6 (THP-1 cells); THP-1, read-out: percent inhibition at 10 M) [%] | inhibition at 10 µM ([3]; read-out: percent inhibition at 10 μM) [%] | inhibition at 10 µM ([2]; SW480, read-out: percent inhibition at 10 μM) [%]
O=C(Nc1cncc(-c2ccc3[nH]nc(-c4cc5c(N6CCCCC6)nccc5[nH]4)c3c2)c1)C1CCC1 [Compound 189, N-(5-(3-(4-(Piperidin-1-yl)-1H-pyrrolo[3,2-c]pyridin-2-yl)-1H-indazol-5-yl)pyridin-3-yl)cyclobutanecarboxamide] | 906 | – | 232 | 955 | 34 | 337 | – | – | – | –
FC1(F)CCN(Cc2cncc(-c3ccc4[nH]nc(-c5cc6c(N7CCCCC7)nccc6[nH]5)c4c3)c2)C1 [Compound 194, 5-(5-((3,3-difluoropyrrolidin-1-yl)methyl)pyridin-3-yl)-3-(4-(piperidin-1-yl)-1H-pyrrolo[3,2-c]pyridin-2-yl)-1H-indazole] | 1420 | – | 257 | 2000 | 40 | 1000 | – | – | – | –
Cc1ccncc1-c1ccc2[nH]nc(-c3cc4c(N5CCN(C)CC5)nccc4[nH]3)c2c1 [Compound 229, 3-(4-(4-Methylpiperazin-1-yl)-1H-pyrrolo[3,2-c]pyridin-2-yl)-5-(4-methylpyridin-3-yl)-1H-indazole] | 3680 | – | 1090 | 3500 | 36 | 2980 | – | – | – | –
CN1CCN(c2nccc3[nH]c(-c4n[nH]c5ccc(-c6cncc(NC(=O)c7ccccc7)c6)cc45)cc23)CC1 [Compound 235, N-(5-(3-(4-(4-Methylpiperazin-1-yl)-1H-pyrrolo[3,2-c]pyridin-2-yl)-1H-indazol-5-yl)pyridin-3-yl)benzamide] | 3620 | – | 754 | 2140 | 35 | 1610 | – | – | – | –
CCCCC(=O)Nc1cncc(-c2ccc3[nH]nc(-c4cc5c(N6CCN(C)CC6)nccc5[nH]4)c3c2)c1 [Compound 243, N-(5-(3-(4-(4-Methylpiperazin-1-yl)-1H-pyrrolo[3,2-c]pyridin-2-yl)-1H-indazol-5-yl)pyridin-3-yl)pentanamide] | 3480 | – | 3170 | 3690 | 49 | 1830 | – | – | – | –
CCC(=O)Nc1cncc(-c2ccc3[nH]nc(-c4cc5cnccc5[nH]4)c3c2)c1 [Compound 253, N-(5-(3-(1H-Pyrrolo[3,2-c]pyridin-2-yl)-1H-indazol-5-yl)pyridin-3-yl) propionamide] | 533 | 900 | 189 | 150 | 259 | 499 | – | – | – | –
c1cncc(-c2ccc3[nH]nc(-c4cc5cnccc5[nH]4)c3c2)c1 [Compound 256, 5-(Pyridin-3-yl)-3-(1H-pyrrolo[3,2-c]pyridin-2-yl)-1H-indazole] | 68 | 10 | 53 | 40 | 341 | 106 | – | – | – | –
CCNCc1cncc(-c2ccc3[nH]nc(-c4cc5cnccc5[nH]4)c3c2)c1 [Compound 258, N-((5-(3-(1H-Pyrrolo[3,2-c]pyridin-2-yl)-1H-indazol-5-yl)pyridin-3-yl)methyl)ethanamine] | 844 | 10 | 451 | 1040 | 317 | 1260 | – | – | – | –
CC(C)C(=O)Nc1cncc(-c2ccc3[nH]nc(-c4cc5cnccc5[nH]4)c3c2)c1 [Compound 261, N-(5-(3-(1H-Pyrrolo[3,2-c]pyridin-2-yl)-1H-indazol-5-yl)pyridin-3-yl)isobutyramide] | 333 | 2700 | 343 | 140 | 181 | 362 | – | – | – | –
O=C(Cc1ccccc1)Nc1cncc(-c2ccc3[nH]nc(-c4cc5cnccc5[nH]4)c3c2)c1 [Compound 262, N-(5-(3-(1H-Pyrrolo[3,2-c]pyridin-2-yl)-1H-indazol-5-yl)pyridin-3-yl)-2-phenylacetamide] | 3490 | 10 | 1700 | 1760 | 119 | 757 | – | – | – | –
c1cc2[nH]c(-c3n[nH]c4ccc(-c5cncc(CN6CCCC6)c5)cc34)cc2cn1 [Compound 266, 5-(5-(Pyrrolidin-1-ylmethyl)pyridin-3-yl)-3-(1H-pyrrolo[3,2-c]pyridin-2-yl)-1H-indazole] | 514 | – | 380 | 790 | 26 | 1850 | – | – | – | –
c1cc2[nH]c(-c3n[nH]c4ccc(-c5cncc(CN6CCCCC6)c5)cc34)cc2cn1 [Compound 267, 5-(5-(Piperidin-1-ylmethyl)pyridin-3-yl)-3-(1H-pyrrolo[3,2-c]pyridin-2-yl)-1H-indazole] | 422 | 100 | 288 | 685 | 122 | 571 | – | – | – | –

Now from value to compound, other results behind:

EC50 (SW480 colon cancer cells) [nM] | EC50 [1] [nM] | EC50 (IL-6 (THP-1 cells)) [nM] | EC50 [2] [nM] | SMILES | Emax [1] [%] | EC50 [3] [nM] | inhibition at 10 µM (SW480 colon cancer cells; SW480, 96 h, read-out: percent inhibition at 10 μM) [%] | inhibition at 10 µM (IL-6 (THP-1 cells); THP-1, read-out: percent inhibition at 10 M) [%] | inhibition at 10 µM ([3]; read-out: percent inhibition at 10 μM) [%] | inhibition at 10 µM ([2]; SW480, read-out: percent inhibition at 10 μM) [%]
1540 | 900 | 8900 | 2020 | CC(C)(C)CC(=O)Nc1cncc(-c2ccc3[nH]nc(-c4cc5c(N6CCCCC6)nccc5[nH]4)c3c2)c1 [Compound 184, 3,3-Dimethyl-N-(5-(3-(4-(piperidin-1-yl)-1H-pyrrolo[3,2-c]pyridin-2-yl)-1H-indazol-5-yl)pyridin-3-yl)butanamide] | 79 | 1470 | – | – | – | –
972 | 900 | 381 | 1800 | O=C(Nc1cncc(-c2ccc3[nH]nc(-c4cc5c(N6CCCCC6)nccc5[nH]4)c3c2)c1)C1CC1 [Compound 188, N-(5-(3-(4-(Piperidin-1-yl)-1H-pyrrolo[3,2-c]pyridin-2-yl)-1H-indazol-5-yl)pyridin-3-yl)cyclopropanecarboxamide] | 146 | 9010 | – | – | – | –
> 10000 | – | 6110 | 7690 | CC(C)C(=O)Nc1cncc(-c2ccc3[nH]nc(-c4cc5c(N6CCN(C)CC6)nccc5[nH]4)c3c2)c1 [Compound 233, N-(5-(3-(4-(4-Methylpiperazin-1-yl)-1H-pyrrolo[3,2-c]pyridin-2-yl)-1H-indazol-5-yl)pyridin-3-yl)isobutyramide] | 21 | 4720 | 38.5 | – | – | –
4190 | – | > 10000 | 9380 | CN1CCN(c2nccc3[nH]c(-c4n[nH]c5ccc(-c6cncc(CN7CCCC7)c6)cc45)cc23)CC1 [Compound 238, 3-(4-(4-Methylpiperazin-1-yl)-1H-pyrrolo[3,2-c]pyridin-2-yl)-5-(5-(pyrrolidin-1-ylmethyl)pyridin-3-yl)-1H-indazole] | 31 | > 10000 | – | 40.5 | 45.7 | –
3700 | 900 | 8420 | > 10000 | CN1CCN(c2nccc3[nH]c(-c4n[nH]c5ccc(-c6cncc(CN7CCCCC7)c6)cc45)cc23)CC1 [Compound 239, 3-(4-(4-Methylpiperazin-1-yl)-1H-pyrrolo[3,2-c]pyridin-2-yl)-5-(5-(piperidin-1-ylmethyl)pyridin-3-yl)-1H-indazole] | 55 | 5120 | – | – | – | 51
4820 | – | 8870 | 5270 | CN1CCN(c2nccc3[nH]c(-c4n[nH]c5ccc(-c6cncc(NC(=O)C7CCCCC7)c6)cc45)cc23)CC1 [Compound 247, N-(5-(3-(4-(4-Methylpiperazin-1-yl)-1H-pyrrolo[3,2-c]pyridin-2-yl)-1H-indazol-5-yl)pyridin-3-yl)cyclohexanecarboxamide] | 38 | 3350 | – | – | – | –
236 | 10 | 94 | 120 | CC(C)(C)CC(=O)Nc1cncc(-c2ccc3[nH]nc(-c4cc5cnccc5[nH]4)c3c2)c1 [Compound 268, N-(5-(3-(1H-Pyrrolo[3,2-c]pyridin-2-yl)-1H-indazol-5-yl)pyridin-3-yl)-3,3-dimethylbutanamide] | 208 | 199 | – | – | – | –
